In series [1] the test system is Nereis virens (polychaete worms). In words: Bioactivity assay on polychaete worms. Type of series: in vivo. As to the method:
To determine if synthetic Tv1 is biologically active, the peptide was injected into polychaete worms, which are the natural prey of terebrid snails. […] Inhibition of nicotinic receptors at the neuromuscular junction can result in paralysis.
Nereis virens (polychaete worms) (less than 3.5 g) were maintained at 4° C. in salt water prior to injection. Worms were laid on a Styrofoam block and injected with an insulin syringe. A modified needle cap was used to maintain a consistent 1.5 mm depth of needle puncture. Worms were injected between the 5th and 7th segments on the ventral anterior end with the aim of targeting the ventral nerve cord. Control worms were injected with 12 μl of 0.9% normal saline solution (NSS). Lyopholized samples of Tv1 toxin were resuspended in NSS and diluted to a concentration of 20 μM which was confirmed using a ThermoScientific Nanodrop 2000c spectrophotometer. At least three worms were used for each trial—one saline control and two injected with Tv1 toxin for a total of three trials. After injection, the worms were transferred to side-by-side containers filled with room temperature salt water. The worm movements were then recorded by video in order to evaluate the effects of the toxin over a period of at least 3.5 hours. Varying temperature elicits different phenotypic responses from N. virens: water at 4° C. has an anesthetizing effect, while room temperature prompts a vigorous response. Taking the worms from 4° C. water and immersing them in room temperature water (25° C.) immediately after injection stimulates an active response from the worms, making it easier to recognize paralytic (or partially paralytic) effects induced by a novel toxin in the first minutes after injection. Worms were observed every other day for two weeks after injection. […] Each video was analyzed and annotated […] by each observer. Observations for each worm began at the time of injection. The numerical results of the two independent viewings were averaged together if results were similar, if two viewers disagreed, a third observer was employed to review the disputed section of video. Results of relative activity vs. time were plotted to quantify the phenotypic effects of the toxin and saline injection on N. virens.

The subject of series [2] is BNL.1MEA.7.R.1 cells. In words: Mouse tumor study: BNL.1MEA.7.R.1 cells injected into right leg, intraperitoneal Tv1. Type of series: in vivo, Balb/c female mice. The method, then: Balb/c female mice (20-35 g) were used for mouse studies. Animals were maintained on standard animal diet, in a controlled room (22±1° C. @ 35-50% RH) for a week prior to experiments. Animals were randomly divided into three groups: negative control (only PBS), high-dose and low-dose ZCD groups. Each group had five mice under sterile condition. On the day nine, the BNL.1MEA.7.R.1 cells (5 million) were injected into the right leg of each animal and allowed the tumors to grow. After two weeks the animals were checked for tumor growth and the sizes of tumors were recorded using calipers. The treatment was started after finding tumors in all groups.
The concentration of the Tv1 formulations was prepared at 0.08 mg/kg body weight (low dose) and 0.80 mg/kg body weight (high dose) for the intraperitoneal injections. Control group of animals received PBS. The drug administrations were continued for seven days and then further after a five day interval treatment was continued for another eight days and tumor sizes were measured every day.
In the high-dose group, the tumor volumes were 286.08±39.9 mm^3 at the beginning of the treatment and were 434.28±286 mm^3 after the last day which is an increase of only 52%.

Series [3] relates to cell lines IMEA7 and BNL.CL2. The series can be described thus: In vitro cell viability, immunoblotting and wound healing assays on liver cancer cells. The format is cell-based. As to the method:
A novel teretoxin, Tv1 (TR(I/L)[…] (SEQ ID NO: 1)) from a terebrid snail, terebrid variegata was structurally identified and found to be biologically active. […] Tv1 was analyzed in cell viability, immunoblotting, and wound healing assays to characterize its function on liver cancer cells. […] Structural characterization of Terebra variegata peptide toxin Tv1 was accomplished using a total venom sample of 4 ng, an amount that would previously make characterization of venom components almost impossible.
In general terms: A western blot detects proteins with antibodies after separation by electrophoresis.

Bridge positions count the residues as written; N and C are the ends. Ends that are not written are not given here.

Here are results for 2 substances from patent US9610319B2, “Method of treating cancer” (Research Foundation of the City University of New York, priority 2014, dated 2017).

On to “TRICCGCYWNGSKDVCSQSCC (disulfide 7-16, 4-20, 5-21; listed as Terebra variegata) [Tv1 (Ile), Tv1 peptide with Ile at the third position]”, for which the “phenotypic effect of injection into worms” value in series [1] (injections of 20 μM) was “partial paralysis”.
For the substance “TR(I/L)CCGCYWNGSKDVCSQSCC [Tv1, novel teretoxin from terebrid snail Terebra variegata, chemically synthesized; Ile or Leu at position 3]”, the “effect on growth of tumor” value in series [2] (both low and high doses) is reported as “effective in significantly decreasing the growth of tumor”. Moreover, the “tumor volume after the last day” value in series [2] (high dose 0.80 mg/kg body weight, intraperitoneal, after the last day) was 434.28±286 mm^3. In addition, the “tumor volume at the beginning of the treatment” value in series [2] (high dose 0.80 mg/kg body weight, intraperitoneal, beginning of treatment) came out at 286.08±39.9 mm^3. For the same substance, in series [2] (high dose 0.80 mg/kg, beginning to last day (negative control 418%)), the “increase of tumor volume” value is recorded as 52%. In series [2] (low dose 0.08 mg/kg body weight, intraperitoneal, day one), the “average tumor volume at the beginning of the treatment” value was 180±36.74 mm^3. For the same substance, the “average tumor volume at the end of treatment” value in series [2] (low dose 0.08 mg/kg body weight, intraperitoneal, end of treatment) turned out to be 485±175.07 mm^3. In addition, the “increase of average tumor volume” value in series [2] (low dose 0.08 mg/kg, day one to end of treatment (negative control 418%)) is on record as 170%. For the same substance, in series [2] (mice models expressing IMEA7 tumor cells subcutaneously), the “selectivity tumor cell versus normal cells in vivo” value is “selectively targets tumor cell versus normal cells”. Also, in series [2] (monitored throughout treatment), the “body weights throughout the treatment period” value is “not significantly changed”. Besides, the “% Time spent, activity at 0” value in series [1] (20 μM injected, activity at 0) is on record as 0.995%. In series [1] (20 μM injected, activity between 0 and 1), the “% Time spent, activity between 0 and 1” value worked out at 74.47%. Further, the “% Time spent, activity between 1 and 2” value in series [1] (20 μM injected, activity between 1 and 2) was 19.98%. The “% Time spent, activity between 2 and 3” value in series [1] (20 μM injected, activity between 2 and 3) worked out at 4.55%. The “selectivity tumor cell versus normal cells in vitro” value in series [3] (cell lines IMEA7 and BNL.CL2) is “selectively targets tumor cell versus normal cells”. In series [3] (cell viability, immunoblotting, wound healing assays), the “death of normal versus cancer cells compared to sorafenib and doxorubicin” value is reported as “prevented the death of normal versus cancer cells at high instance”.
